Measured values published in patent US20260325655A1, “DECREASING THE INTRINSICALLY DISORDERED PROTEIN ALPHA-SYNUCLEIN’S LEVELS BY TARGETING ITS STRUCTURED MRNA WITH A RIBONUCLEASE TARGETING CHIMERA” (University of Florida Research Foundation, Incorporated, priority 2023, published 2026).

Key:
SNCA-UTR-Luciferase = assay: SNCA-UTR luciferase reporter assay; format: cell-based, human; conditions: Homo sapiens, M-HeLa; 2 μM; HeLa cells; read-out: decrease of luminescence signal
Excerpt: Plasmid constructs and establishment of reporter gene overexpressing cells. Construction of pIRES-Luc-EGFP-puro plasmid and pCDH-α-syn-5′-UTR-Luc-EGFP-puro plasmid used in 5′ UTR-luciferase-based selectivity assay were previously described.^4 Briefly, In-Fusion PCR cloning system (Takara Bio, Mountain View, CA, USA) was used for all plasmid constructions per the manufacturer's instructions. To ensure sequence accuracy, all plasmids generated in this study were confirmed by sequencing.
Luciferase assay. The effect of compounds on translation of SNCA IRE-containing transcript was measured by using a luciferase reporter assay. HeLa cells (~60% confluency) were transfected with plasmids (2 μg per 60 mm dish) by using JetPrime (Polyplus Transfection) according to the manufacturer's recommended procedures. Approximately 16 h after transfection, the transfection cocktail was removed, and the cells were trypsinized and seeded to 96-well plates (8,000 cells per well). After 6 h, cells were treated as described in Cell Culture. To measure the luciferase signals, the cells were then washed with 1× DPBS, and luciferase activity in each well was measured by using the ONE-Glo Luciferase Assay System (Promega) per the manufacturer's instructions. Luminescence from firefly luciferase reaction was measured using a Biomek FLx800 plate reader.

[1] = system: seven proteins encoded by genes enriched by Syn-CLIP; assay: Western blot validation of seven proteins encoded by transcripts enriched by Syn-CLIP; format: cell-based, human; conditions: 2 μM, 48 h; SH-SY5Y
Description: Western blotting. After 48 h, cells were gently washed with ice-cold 1× DPBS, and total protein was extracted with Mammalian Protein Extraction Reagent (M-PER, Thermo Scientific) per the manufacturer's protocol. After quantifying protein concentration by using BCA Protein Assay Kit (Pierce Biotechnology), ~30 μg of total protein for each sample was separated using a 10% SDS-polyacrylamide gel and transferred onto a PVDF membrane. The membrane was fixed with 0.4% paraformaldehyde (pH=7.0) for 30 min at room temperature^9 and then blocked with 5% (w/v) non-fat dry milk in 1× TBST (1× TBS containing 0.1% Tween-20) for 1 h at room temperature. […] After washing 10 min each with 1× TBST three times, immunocomplex signals of each protein were detected by using a SuperSignal West Pico Chemiluminescent Substrate (Pierce Biotechnology) according to the manufacturer's protocol. The memebrane was then stripped by using 1× Stripping Buffer (200 mM glycine, pH 2.2, 4 mM SDS, 1% (v/v) Tween 20) at room temperature for 15 min, followed by blocking with 5% (w/v) non-fat dry milk at room temperature for 1 h. β-actin was used to normalize the levels of all proteins, measured by incubating with a primary antibody for β-actin (1:5000, 3700S from Cell Signaling Technology) at 4° C. overnight. […]

SMILES	inhibition at 2 µM (SNCA-UTR-Luciferase) [%]	effect on seven proteins by Western blot [1]
CCOC(=O)C1=C(Nc2ccccc2)S/C(=C\c2ccc(OCCOCCOCCOCCNC(=O)CCCOc3ccc(-n4c(SCC(=O)Nc5ccc6cn[nH]c6c5)nnc4-c4ccncc4)cc3)c(O)c2)C1=O [Syn-RiboTAC]	~40	did not affect these seven proteins
O=C(CSc1nnc(-c2ccncc2)n1-c1ccc(Br)cc1)Nc1ccc2cn[nH]c2c1 [Synucleozid-2.0]	~25	did not affect these seven proteins
